From patent US8829003B2, “Compounds for treating proliferative disorders” (Changzhou Le Sun Pharmaceuticals Limited, priority 2010, dated 2014)

What was measured:
cancer cells = assay: MTT proliferation assay; type: cell-based; settings: GI50 values only in FIG. 4
Description: C.1. MTT Proliferation Assay.
The compounds from the examples above were subjected to a standard cellular proliferation assay using the method described previously in S. Wang et al. J Med Chem. 2004, 47, 1662-1675. The data analysis used program Deltasoft 3™ and Microsoft Excel to determine GI50 values (concentration of test compound which inhibits cell growth by 50%).

[1] = test system: HCT-116 human colon cancer cells; assay: Cell-cycle effects, DNA content by flow cytometry; type: cell-based; settings: HCT-116 cells, 0.62 μM, 48 hrs
Procedure: HCT-116 human colon cancer cells were treated with DMSO and A.12 at GI50 and […] respectively for a period of 48 hrs. The cells were analysed for their DNA content by flow cytometry.
This further indicates the efficacy of the compounds of the invention.

[2] = Mouse pharmacokinetics, IV and oral dosing; settings: mice
Procedure: For PK measurements male adult CD1 mice weighing 25-30 g (Charles River) are split into weight matched groups of 3 per group. IV dosed mice were restrained in individual restraining tubes, the tail was warmed in warm water to vasodilate the tail vein, and the IV bolus was then administered via the tail vein. Orally dosed mice were held at the scruff of the neck and dosed via a metal gavage directly into the stomach. Immediately after dosing mice are returned to their cage, plastic box cage with sawdust bedding, and food and water available. Blood samples were collected from the mouse under anaesthesia by cardiac puncture using a 1 mL syringe and 25 gauge needle at time zero and at intervals up to 8 h. Harvested blood was centrifuged at 7000×G for 2 minutes, and the plasma aspirated and frozen at 20° C. until analysis. Quantitative compound level analysis was carried out using LC-MS/MS methods. Pharmacokinetic data derived using PK Solutions 2.0, non-compartmental analysis. Oral bioavailability (% F) was calculated by taking the ratio of dose-normalised AUC values from oral versus parenteral dosing.

SMILES | inhibition of cell growth (cancer cells) | apoptosis (sub-G1 cells) [1] | effect on cell cycle progression [1] | pharmacokinetic properties compared with ON01910.Na ([2]; IV and PO) | oral bioavailability (F) ([2]; oral, 10 mg/kg)
CCOC(=O)CNc1cc(CS(=O)(=O)/C=C/c2c(OC)cc(OC)cc2OC)cnc1OC [A.13, (E)-ethyl 2-(2-methoxy-5-((2,4,6-trimethoxystyrylsulfonyl)methyl)pyridin-3-ylamino)acetate] | effectively inhibit cell growth |  |  |  | 
COc1cccc(OC)c1/C=C/S(=O)(=O)Cc1cnc(OC)c([N+](=O)[O-])c1 [A.17, (E)-5-((2,6-Dimethoxystyrylsulfonyl)methyl)-2-methoxy-3-nitropyridine] | effectively inhibit cell growth |  |  |  | 
COc1cc(OC)c(/C=C/S(=O)(=O)Cc2cnc(OC)c(NS(C)(=O)=O)c2)c(OC)c1 [A.12, (E)-N-(2-methoxy-5-((2,4,6-trimethoxystyrylsulfonyl)methyl)pyridin-3-yl)methanesulfonamide] | effectively inhibit cell growth | increased sub-G1 cells | block of their cell cycle progression in G2/M phase | significantly improved pharmacokinetic properties | 56%
COc1cc(OC)c(/C=C/S(=O)(=O)Cc2ccc(OC)c(N3CCCCC3)n2)c(OC)c1 [A.29, (E)-3-Methoxy-2-(piperidin-9-yl)-6-((2,4,6-trimethoxystyrylsulfonyl)methyl)pyridine] | effectively inhibit cell growth |  |  |  | 
COc1cc(OC)c(/C=C/S(=O)(=O)Cc2cnc(OC)c(N)c2)c(OC)c1 [A.10, (E)-2-methoxy-5-((2,4,6-trimethoxystyrylsulfonyl)methyl)pyridin-3-amine] | effectively inhibit cell growth |  |  |  | 
